# Laboratory results from US10259810B2, “N-sulfonylated pyrazolo[3,4-b]pyridin-6-carboxamides and method of use” (AbbVie S.à.r.l., priority 2015, dated 2019).
# Where two headings read alike, the source gives them in different places.
# Tests used:
# Type in all cases: cell-based
# [1] = target: T1, CFTR ΔF508 (Homo sapiens, UniProt P13569, DEL508-508); experiment: Chronic TECC assay, primary bronchial epithelial cells of CF patients homozygous for CFTR ΔF508 (corrector, co-corrector and potentiator); settings: chronic TECC; for % Activity at 3 μM (AUC**): test compound at 3 μM; for % Activity at 1 μM (AUC**) / % Activity at 1 μM (Ieq*): test compound at 1 μM
# T1 construct: bronchial epithelial cells isolated from CF patients homozygous for the CFTR ΔF508 mutation; McGill University; Asterand; University of North Carolina hAEC-CF; host or cells: primary human bronchial epithelial cells from CF patients homozygous for ΔF508, differentiated at air-liquid interface
# Summary of the method: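 Primary bronchial epithelial cells from ΔF508-homozygous CF patients on collagen IV-coated Transwells were chronically treated with test compound plus corrector and potentiator, which were re-added before recording. Ieq was derived from PD and Rt in NaCl-Ringer, pH 7.4, at 37° C, with apical amiloride and bilateral forskolin, recorded every 2 min over 20 min. Ieq increase was normalized to controls, and EC50 was taken from per-well concentrations.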
# [2] = target: T2, ΔF508-CFTR (Homo sapiens, UniProt P13569, DEL508-508); experiment: CFTR cell surface levels using HRP-tagged ΔF508-CFTR expressing CFBE cells, in the presence of a co-corrector; settings: HRP-tagged ΔF508-CFTR CFBE cells, in the presence of 3 μM co-corrector; for EC50: read-out: EC50
# T2 construct: host or cells: CFBE41o-, doxycycline-inducible
# Summary of the method: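 Chemiluminescent read-out of surface HRP (15 min, dark) after PBS washes. Activity is normalized as 100×(sample−DMSO)/(3 μM co-corrector alone−DMSO).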
# [3] = target: T2, ΔF508-CFTR; experiment: CFTR cell surface levels using HRP-tagged ΔF508-CFTR expressing CFBE cells, intrinsic corrector capacity; set-up: % Activation: concentration or dose not given beside the values; settings: HRP-tagged ΔF508-CFTR expressing CFBE41o- cells, compound alone (intrinsic corrector capacity), 20 hours at 33° C.; for EC50: read-out: EC50
# Summary of the method: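 Read-out: chemiluminescent HRP activity of ECL4-HRP-tagged ΔF508-CFTR at the cell surface, 15 min substrate in dark. Normalized as 100×(sample−DMSO)/(positive control−DMSO).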
# [4] = AUC = full area under the curve upon forskolin stimulation
# [5] = Ieq = calculations based on the maximum current, read-out: EC50 (nM) (Ieq*)
# [6] = AUC = full area under the curve upon forskolin stimulation, read-out: EC50 (nM) (AUC**)
# [7] = Ieq = calculations based on the maximum current
# T1 sequence (P13569 with tags, fused parts or gaps DEL508-508): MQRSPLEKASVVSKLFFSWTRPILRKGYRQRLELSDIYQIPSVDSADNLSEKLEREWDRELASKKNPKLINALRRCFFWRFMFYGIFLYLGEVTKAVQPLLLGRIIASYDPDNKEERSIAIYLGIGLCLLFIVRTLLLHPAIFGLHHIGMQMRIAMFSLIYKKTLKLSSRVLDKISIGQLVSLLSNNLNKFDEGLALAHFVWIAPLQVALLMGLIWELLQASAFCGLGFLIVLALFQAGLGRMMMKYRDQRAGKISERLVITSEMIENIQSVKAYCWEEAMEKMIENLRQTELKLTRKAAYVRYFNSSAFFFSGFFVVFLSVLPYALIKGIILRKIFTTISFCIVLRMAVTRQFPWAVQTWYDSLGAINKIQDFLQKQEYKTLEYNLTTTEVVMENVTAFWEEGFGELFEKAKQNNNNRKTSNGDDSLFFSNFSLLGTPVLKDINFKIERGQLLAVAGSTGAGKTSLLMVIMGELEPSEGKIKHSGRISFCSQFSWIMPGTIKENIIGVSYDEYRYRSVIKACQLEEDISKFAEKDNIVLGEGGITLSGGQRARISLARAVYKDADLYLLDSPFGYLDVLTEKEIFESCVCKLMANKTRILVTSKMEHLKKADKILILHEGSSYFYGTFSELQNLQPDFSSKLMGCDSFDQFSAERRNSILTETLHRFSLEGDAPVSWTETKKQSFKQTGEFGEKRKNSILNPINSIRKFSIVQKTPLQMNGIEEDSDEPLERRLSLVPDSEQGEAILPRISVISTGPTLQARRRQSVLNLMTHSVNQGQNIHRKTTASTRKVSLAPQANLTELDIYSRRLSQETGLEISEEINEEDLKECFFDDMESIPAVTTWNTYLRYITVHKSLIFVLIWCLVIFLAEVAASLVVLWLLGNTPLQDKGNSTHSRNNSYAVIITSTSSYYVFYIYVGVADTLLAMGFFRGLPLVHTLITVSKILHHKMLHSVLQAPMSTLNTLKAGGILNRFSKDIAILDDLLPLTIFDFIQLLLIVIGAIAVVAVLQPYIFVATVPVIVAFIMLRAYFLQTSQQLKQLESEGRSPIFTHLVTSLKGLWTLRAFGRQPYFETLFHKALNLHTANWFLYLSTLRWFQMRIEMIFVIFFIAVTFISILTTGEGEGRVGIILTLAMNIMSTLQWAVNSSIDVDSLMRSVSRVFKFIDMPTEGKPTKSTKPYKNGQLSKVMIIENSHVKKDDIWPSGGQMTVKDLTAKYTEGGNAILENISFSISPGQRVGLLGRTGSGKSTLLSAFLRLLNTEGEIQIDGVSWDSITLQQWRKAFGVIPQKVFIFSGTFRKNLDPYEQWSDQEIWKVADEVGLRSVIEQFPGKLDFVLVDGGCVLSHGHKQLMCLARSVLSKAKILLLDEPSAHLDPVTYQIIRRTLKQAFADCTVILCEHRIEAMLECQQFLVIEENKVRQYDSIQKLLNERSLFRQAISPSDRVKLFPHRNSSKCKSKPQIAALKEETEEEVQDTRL
# T2 sequence (P13569 with tags, fused parts or gaps DEL508-508): as above
Structure (SMILES),"% Activity at 3 μM (AUC**) [1, 4]",% Activation [2],EC50 [2],% Activation [3],EC50 [3],"EC50 [1, 5]","EC50 [1, 6]","% Activity at 1 μM (AUC**) [1, 4]","% Activity at 1 μM (Ieq*) [1, 7]"
"CC(C)Oc1nn(C2CCCCC2)c2nc(C(=O)NS(=O)(=O)N(C)C)cc(-c3ccc(C(=O)N4CCC(N(C)C)CC4)cc3)c12 [Compound 546, 1-cyclohexyl-4-{4-[4-(dimethylamino)piperidine-1-carbonyl]phenyl}-N-(dimethylsulfamoyl)-3-[(propan-2-yl)oxy]-1H-pyrazolo[3,4-b]pyridine-6-carboxamide]",282.0317%,335.3%,182 nM,138.05%,325 nM,,,,
"COC1CCN(c2cc(C(=O)NS(C)(=O)=O)nc3c2c(C(C)C)nn3C2CCCCC2)CC1 [Compound 150, 1-cyclohexyl-N-(methanesulfonyl)-4-(4-methoxypiperidin-1-yl)-3-(propan-2-yl)-1H-pyrazolo[3,4-b]pyridine-6-carboxamide]",,380.65%,318 nM,220.98%,576 nM,100 nM,,,
"CS(=O)(=O)NC(=O)c1cc(N2CCC(N3CCOCC3)CC2)c2c(C3CCC3)nn(C3CCCCC3)c2n1 [Compound 418, 3-cyclobutyl-1-cyclohexyl-N-(methanesulfonyl)-4-[4-(morpholin-4-yl)piperidin-1-yl]-1H-pyrazolo[3,4-b]pyridine-6-carboxamide]",,512.9%,221 nM,321.3%,321 nM,,19.2 nM,196.6667%,
"CC(C)c1nn(-c2ccnc(N3CCOCC3)c2)c2nc(C(=O)NS(C)(=O)=O)cc(-c3ccc(N4CCOCC4)cc3)c12 [Compound 136, N-(methanesulfonyl)-4-[4-(morpholin-4-yl)phenyl]-1-[2-(morpholin-4-yl)pyridin-4-yl]-3-(propan-2-yl)-1H-pyrazolo[3,4-b]pyridine-6-carboxamide]",,428.1%,72.3 nM,262.38%,155 nM,,23.5 nM,233.2%,
"O=C(NS(=O)(=O)CCO)c1cc(N2CCC(N3CCOCC3)CC2)c2c(C3CCC3)nn(-c3ccc(F)cc3)c2n1 [Compound 448, 3-cyclobutyl-1-(4-fluorophenyl)-N-(2-hydroxyethanesulfonyl)-4-[4-(morpholin-4-yl)piperidin-1-yl]-1H-pyrazolo[3,4-b]pyridine-6-carboxamide]",,431.1%,181 nM,258.2%,477 nM,,,116.8948%,
"COCCS(=O)(=O)NC(=O)c1cc(N2CCC(OC)CC2)c2c(C3CCC3)nn(-c3ccccc3)c2n1 [Compound 146, 3-cyclobutyl-N-(2-methoxyethanesulfonyl)-4-(4-methoxypiperidin-1-yl)-1-phenyl-1H-pyrazolo[3,4-b]pyridine-6-carboxamide]",,357.55%,96.9 nM,201.23%,356 nM,30 nM,,,310%
"CN(C)S(=O)(=O)NC(=O)c1cc(N2CCC3C(CCN3C3COC3)C2)c2c(C3CCC3)nn(-c3ccc(F)cc3)c2n1 (stereo not shown) [Compound 627, 3-cyclobutyl-N-(dimethylsulfamoyl)-1-(4-fluorophenyl)-4-[1-(oxetan-3-yl)octahydro-5H-pyrrolo[3,2-c]pyridin-5-yl]-1H-pyrazolo[3,4-b]pyridine-6-carboxamide]",446.6667%,348.57%,24.8 nM,162.47%,82.3 nM,,,,
"CCS(=O)(=O)NC(=O)c1cc(-c2cnc(N(C)C)nc2)c2c(C(C)C)nn(-c3cccc(N4CCOCC4)c3)c2n1 [Compound 30, 4-[2-(dimethylamino)pyrimidin-5-yl]-N-(ethanesulfonyl)-1-[3-(morpholin-4-yl)phenyl]-3-(propan-2-yl)-1H-pyrazolo[3,4-b]pyridine-6-carboxamide]",,580.97%,215 nM,369.93%,436 nM,< 30 nM,,,450%
"CN(C)S(=O)(=O)NC(=O)c1cc(C2CCC(N3CCOCC3)CC2)c2c(C3CCC3)nn(-c3ccccc3)c2n1 (stereo not shown) [Compound 649, 3-cyclobutyl-N-(dimethylsulfamoyl)-4-[4-(morpholin-4-yl)cyclohexyl]-1-phenyl-1H-pyrazolo[3,4-b]pyridine-6-carboxamide]",224.5026%,231.7%,152 nM,69.12%,370 nM,,,,
"CS(=O)(=O)NC(=O)c1cc(OCC2CCOCC2)c2c(C3CCC3)nn(-c3ccccc3)c2n1 [Compound 200, 3-cyclobutyl-N-(methanesulfonyl)-4-[(oxan-4-yl)methoxy]-1-phenyl-1H-pyrazolo[3,4-b]pyridine-6-carboxamide]",,318.27%,94.8 nM,163.43%,316 nM,,,364.3%,
"CN(C(=O)c1cc(N2CCC(N3CCOCC3)CC2)c2c(C3CCC3)nn(-c3ccc(F)cc3)c2n1)S(C)(=O)=O [Compound 654, 3-cyclobutyl-1-(4-fluorophenyl)-N-(methanesulfonyl)-N-methyl-4-[4-(morpholin-4-yl)piperidin-1-yl]-1H-pyrazolo[3,4-b]pyridine-6-carboxamide]",,347.6%,114 nM,73.925%,5080 nM,,,293.3333%,
"CN(C)S(=O)(=O)NC(=O)c1cc(N2CCC3C(CCN3C3CCOCC3)C2)c2c(C3CCC3)nn(-c3ccc(F)cc3)c2n1 (stereo not shown) [Compound 628, 3-cyclobutyl-N-(dimethylsulfamoyl)-1-(4-fluorophenyl)-4-[1-(oxan-4-yl)octahydro-5H-pyrrolo[3,2-c]pyridin-5-yl]-1H-pyrazolo[3,4-b]pyridine-6-carboxamide]",473.0586%,477.32%,132 nM,283.25%,425 nM,,88.4 nM,,
"COC(C)C1CCN(c2cc(C(=O)NS(C)(=O)=O)nc3c2c(C2CCC2)nn3-c2ccccc2)CC1 (stereo not shown) [Compound 241, 3-cyclobutyl-N-(methanesulfonyl)-4-[4-(1-methoxyethyl)piperidin-1-yl]-1-phenyl-1H-pyrazolo[3,4-b]pyridine-6-carboxamide]",,488.15%,82.2 nM,261.93%,366 nM,,< 10 nM,400%,
"COCC1CCN(c2cc(C(=O)NS(=O)(=O)CCN(C)C)nc3c2c(C2CCC2)nn3-c2ccccc2)CC1 [Compound 273, 3-cyclobutyl-N-[2-(dimethylamino)ethanesulfonyl]-4-[4-(methoxymethyl)piperidin-1-yl]-1-phenyl-1H-pyrazolo[3,4-b]pyridine-6-carboxamide]",,344.05%,111 nM,182.4%,562 nM,,,197.06%,
